In US9850283B2, “Macrocyclic inhibitors of the PD-1/PD-L1 and CD80(B7-1)/PD-L1 protein/protein interactions” (BRISTOL-MYERS SQUIBB COMPANY, priority 2013, dated 2017):
Like-named read-outs stand apart in the source and are kept apart here. Starred links: 1 amine or outer side, 2 acyl side, 3 side chain; linkers in the order of their positions; H or OH if unused. Positions of bridges follow the written chain, without caps; N, C: chain ends. Non-standard residues stand in square brackets, D forms with d. Residues, ends and D or L forms follow the SMILES beside them. ξ: configuration not given here. *: point of attachment. Trp(2-Ph) = N[C@@H](Cc1c(-c2ccccc2)[nH]c2ccccc12)C(=O)O; Ala(benzothiazol-2-yl) = N[C@@H](Cc1nc2ccccc2s1)C(=O)O; Phe(4-guanidino) = N=C(N)Nc1ccc(C[C@H](N)C(=O)O)cc1; X16 = O=C([C@@H]1CC[C@H](O)CN1[*:1])[*:2]; Phe(2-OMe) = COc1ccccc1C[C@H](N)C(=O)O; Pro(5S-Me) = C[C@H]1CC[C@@H](C(=O)O)N1; Bta = N[C@@H](Cc1csc2ccccc12)C(=O)O; Cyclobutanecarbonyl = O=C(C1CCC1)*; Hyp = O=C(O)[C@@H]1C[C@@H](O)CN1; NMeF = CN[C@@H](Cc1ccccc1)C(=O)O; AllylGly = C=CC[C@H](N)C(=O)O; NMeNle = CCCC[C@H](NC)C(=O)O; ξR = N=C(N)NCCCC(N)C(=O)O; NMeA = CN[C@@H](C)C(=O)O; 2Furoyl = O=C(c1ccco1)*; Dab = NCC[C@H](N)C(=O)O; Dap = NC[C@H](N)C(=O)O; ξC = NC(CS)C(=O)O; Sar = CNCC(=O)O

How the values were obtained:
Human PD-L1/PD-1 = molecular target: T1, Human PD-L1/PD-1 (Homo sapiens, UniProt Q9NZQ7); test: HTRF PD-1-Ig/PD-L1-His binding assay (human PD-L1); settings: cluster symbol; read-out: HTRF IC50 cluster
T1 construct: made in house; host or cells: HEK293T
T1 sequence (Q9NZQ7 with tags, fused parts or gaps): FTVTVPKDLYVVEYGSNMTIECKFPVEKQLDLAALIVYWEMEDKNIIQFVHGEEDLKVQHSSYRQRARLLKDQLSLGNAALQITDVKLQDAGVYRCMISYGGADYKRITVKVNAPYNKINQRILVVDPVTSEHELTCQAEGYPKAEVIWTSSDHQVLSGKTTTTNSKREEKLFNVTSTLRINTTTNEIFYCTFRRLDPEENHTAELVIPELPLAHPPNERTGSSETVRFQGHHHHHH
In short: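 Soluble Fc-fused PD-1 and His-tagged PD-L1 (truncated before the transmembrane region) were combined in dPBS with 0.1% (w/v) BSA and 0.05% (v/v) Tween-20. Binding was read by HTRF using europium cryptate anti-Ig antibody (1 nM final) and APC anti-His antibody (20 nM final).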

[1] = molecular target: T2, LK35.2-hPD-L1 cells / PE-labeled PD-1-Ig (Homo sapiens, UniProt Q9NZQ7); test: LK35.2-hPD-L1 cell binding high-content screening assay; type: cell-based; settings: cluster symbol, read-out: CBA IC50 cluster
T2 construct: expressed in transfected cells; host or cells: LK35.2 mouse B cell line
T2 sequence (Q9NZQ7 19-290): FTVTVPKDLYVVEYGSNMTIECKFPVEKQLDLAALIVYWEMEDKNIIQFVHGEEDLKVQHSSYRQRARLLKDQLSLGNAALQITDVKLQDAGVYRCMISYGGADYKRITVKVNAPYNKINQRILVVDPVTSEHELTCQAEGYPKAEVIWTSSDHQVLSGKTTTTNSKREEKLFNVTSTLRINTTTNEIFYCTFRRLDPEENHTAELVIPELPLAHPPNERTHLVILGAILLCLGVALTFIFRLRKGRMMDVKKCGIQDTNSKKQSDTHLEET
In short: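 Fluorescent PD-1-Ig binding to PD-L1-expressing LK35.2 cells, imaged after washing. Conditions: 1 nM PE-PD-1-Ig, 37 °C, 1 h, RPMI with 10% fetal calf serum.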

[2] = cell line of CBA not given (LK35.2-hPD-L1 or 293T-hPD-L1)
[3] = cell binding assay, cell line not given

Structure (SMILES)	IC50 (Human PD-L1/PD-1) [nM]	IC50 [1, 2] [nM]	IC50 [1, 3] [nM]
CCCC[C@H]1C(=O)N(C)[C@@H](CCCC)C(=O)N[C@@H](CCCNC(=N)N)C(=O)N[C@H](C(=O)NCC(N)=O)CSCC(=O)N[C@@H](Cc2ccc(O)cc2)C(=O)N(C)[C@@H](C)C(=O)N[C@@H](CCN)C(=O)N2CCC[C@H]2C(=O)N[C@@H](C)C(=O)N[C@@H](CCC(=O)O)C(=O)N2C[C@H](O)C[C@H]2C(=O)N[C@@H](Cc2c[nH]c3ccccc23)C(=O)N[C@@H](CO)C(=O)N[C@@H](Cc2c[nH]c3ccccc23)C(=O)N1C [Example 1155] ({CH2CO}-Y[NMeA][Dab]PAE[Hyp]WSW[NMeNle][NMeNle]RCG-NH2; thioether N-14)	6.76 to 30.3	4.78 to 72.9	
CCCC[C@H]1C(=O)N(C)[C@@H](CCCC)C(=O)N[C@@H](CC(C)C)C(=O)N[C@H](C(=O)NCC(N)=O)CSCC(=O)N[C@@H](Cc2ccc(O)cc2)C(=O)N(C)[C@@H](C)C(=O)N[C@@H](CC(N)=O)C(=O)N2CCC[C@H]2C(=O)N[C@@H](CN)C(=O)N[C@@H](CC(C)C)C(=O)N2C[C@@H](O)CC[C@H]2C(=O)N[C@@H](Cc2c[nH]c3ccccc23)C(=O)N[C@@H](CCN)C(=O)N[C@@H](Cc2c[nH]c3ccccc23)C(=O)N1C [Example 6042] ({CH2CO}-Y[NMeA]NP[Dap]L[X16]W[Dab]W[NMeNle][NMeNle]LCG-NH2; thioether N-14)	0.385 to 6.74		4.78 to 72.9
CCCC[C@H]1C(=O)N(C)[C@@H](CCCC)C(=O)N[C@@H](CCN)C(=O)N[C@H](C(=O)NCC(N)=O)CSCC(=O)N[C@@H](Cc2ccc(O)cc2)C(=O)N(C)[C@@H](C)C(=O)N[C@@H](CC(N)=O)C(=O)N2CCC[C@H]2C(=O)N[C@@H](Cc2cnc[nH]2)C(=O)N[C@@H](CC(C)C)C(=O)N2C[C@H](O)C[C@H]2C(=O)N[C@@H](Cc2c[nH]c3ccccc23)C(=O)N[C@@H](CCN)C(=O)N[C@@H](Cc2c[nH]c3ccccc23)C(=O)N1C [Example 5032] ({CH2CO}-Y[NMeA]NPHL[Hyp]W[Dab]W[NMeNle][NMeNle][Dab]CG-NH2; thioether N-14)	0.385 to 6.74		0.158 to 4.71
C=CC[C@@H]1NC(=O)[C@H](Cc2c[nH]c3ccccc23)NC(=O)[C@@H]2CCCN2C(=O)[C@H](CC(C)C)NC(=O)[C@H](Cc2cnc[nH]2)NC(=O)[C@@H]2CCCN2C(=O)[C@H](CC(N)=O)NC(=O)[C@H](C)N(C)C(=O)[C@H](Cc2cnc[nH]2)NC(=O)CSC[C@@H](C(=O)NCC(N)=O)NC(=O)[C@H](CC=C)NC(=O)[C@H](CCCC)N(C)C(=O)[C@H](CCCC)N(C)C(=O)[C@H](Cc2c[nH]c3ccccc23)NC1=O [Example 7021] ({CH2CO}-H[NMeA]NPHLPW[AllylGly]W[NMeNle][NMeNle][AllylGly]CG-NH2; thioether N-14)	> 30.5		> 74.3
CC(C)C[C@@H]1NC(=O)[C@H](Cc2c[nH]cn2)NC(=O)[C@@H]2CCCN2C(=O)[C@H](CC(N)=O)NC(=O)[C@H](C)N(C)C(=O)[C@H](Cc2ccccc2)NC(=O)CSC[C@@H](C(=O)NCC(N)=O)NC(=O)[C@H](CCCNC(=N)N)NC(=O)[C@H](C)N(C)C(=O)[C@H](CNC(=O)C2CCC2)NC(=O)[C@H](Cc2c[nH]c3ccccc23)NC(=O)[C@H](CO)NC(=O)[C@H](Cc2c[nH]c3ccccc23)NC(=O)CN(C)C1=O [Example 1033] ({CH2CO}-F[NMeA]NPHL[Sar]WSW[Dap](Cyclobutanecarbonyl)[NMeA]RCG-NH2; thioether N-14)	> 30.5	> 74.3	
CCCC[C@H]1C(=O)N(C)[C@@H](CCCC)C(=O)N[C@@H](CCCN)C(=O)N[C@H](C(=O)NCC(N)=O)CSCC(=O)N[C@@H](Cc2ccc(O)cc2)C(=O)N(C)[C@@H](C)C(=O)N[C@@H](CC(N)=O)C(=O)N2CCC[C@H]2C(=O)N[C@@H](CN)C(=O)N[C@@H](CC(C)C)C(=O)N2C[C@H](Cc3ccc(F)cc3)C[C@H]2C(=O)N[C@@H](Cc2c[nH]c3ccccc23)C(=O)N[C@@H](CO)C(=O)N[C@@H](Cc2c[nH]c3ccccc23)C(=O)N1C [Example 13013]	0.385 to 6.74		0.158 to 4.71
CCCC[C@H]1C(=O)N(C)CC(=O)N[C@@H](CC(=O)O)C(=O)N[C@@H](C(C)C)C(=O)N(C)[C@@H](Cc2ccccc2)C(=O)N[C@@H](Cc2ccc(O)cc2)C(=O)N(C)CC(=O)N[C@@H](Cc2nc3ccccc3s2)C(=O)N[C@@H](Cc2ccc(O)cc2)C(=O)N[C@@H](CC(C)C)C(=O)N[C@H](C(=O)NCC(N)=O)CSCC(=O)N[C@@H](Cc2ccccc2)C(=O)N(C)[C@@H](Cc2ccccc2)C(=O)N1C [Example 3557] ({CH2CO}-F[NMeF][NMeNle][Sar]DV[NMeF]Y[Sar][Ala(benzothiazol-2-yl)]YLCG-NH2; thioether N-13)	> 30.5		> 74.3
CCCC[C@H]1C(=O)N(C)[C@@H](CCCC)C(=O)NC(CCCNC(=N)N)C(=O)N[C@H](C(=O)NCC(N)=O)CSCC(=O)N[C@@H](Cc2ccc(O)cc2)C(=O)N(C)[C@@H](C)C(=O)N[C@@H](CC(N)=O)C(=O)N2CCC[C@H]2C(=O)N[C@@H](Cc2cnc[nH]2)C(=O)N[C@@H](CC(C)C)C(=O)N2CCC[C@H]2C(=O)N[C@@H](Cc2c[nH]c3ccccc23)C(=O)N[C@@H](CO)C(=O)N[C@@H](Cc2c(-c3ccccc3)[nH]c3ccccc23)C(=O)N1C (stereo partly shown) [Example 7001] ({CH2CO}-Y[NMeA]NPHLPWS[Trp(2-Ph)][NMeNle][NMeNle][ξR]CG-NH2; thioether N-14)	0.385 to 6.74		0.158 to 4.71
CCCC[C@H]1C(=O)N(C)[C@@H](CCCC)C(=O)N[C@@H](CCCNC(=N)N)C(=O)N[C@H](C(=O)NCC(N)=O)CSCC(=O)N[C@@H](Cc2ccc(O)cc2)C(=O)N(C)[C@@H](C)C(=O)N[C@@H](CC(N)=O)C(=O)N2CCC[C@H]2C(=O)N[C@@H](CN)C(=O)N[C@@H](CC(N)=O)C(=O)N2C[C@H](O)C[C@H]2C(=O)N[C@@H](Cc2c[nH]c3ccccc23)C(=O)N[C@@H](CO)C(=O)N[C@@H](Cc2csc3ccccc23)C(=O)N1C [Example 6028] ({CH2CO}-Y[NMeA]NP[Dap]N[Hyp]WS[Bta][NMeNle][NMeNle]RCG-NH2; thioether N-14)	6.76 to 30.3		0.158 to 4.71
CCCC[C@H]1C(=O)N(C)[C@@H](CCCC)C(=O)N[C@@H](CCCNC(=N)N)C(=O)N[C@H](C(=O)NCC(N)=O)CSCC(=O)N[C@@H](Cc2ccccc2)C(=O)N(C)[C@@H](C)C(=O)N[C@@H](CC(N)=O)C(=O)N2CCC[C@H]2C(=O)N[C@@H](Cc2c[nH]cn2)C(=O)N[C@@H](CC(C)C)C(=O)N[C@@H](CCNC(=O)c2ccco2)C(=O)N[C@@H](Cc2c[nH]c3ccccc23)C(=O)N[C@@H](CO)C(=O)N[C@@H](Cc2c[nH]c3ccccc23)C(=O)N1C [Example 1023] ({CH2CO}-F[NMeA]NPHL[Dab](2Furoyl)WSW[NMeNle][NMeNle]RCG-NH2; thioether N-14)	> 30.5	> 74.3	
CCCC[C@H]1C(=O)N(C)[C@@H](CCCC)C(=O)N[C@@H](CCCNC(=N)N)C(=O)N[C@H](C(=O)NCC(N)=O)CSCC(=O)N[C@@H](Cc2ccc(N=C(N)N)cc2)C(=O)N(C)[C@@H](C)C(=O)N[C@@H](CC(N)=O)C(=O)N2CCC[C@H]2C(=O)N[C@@H](CN)C(=O)N[C@@H](CC(C)C)C(=O)N2C[C@H](O)C[C@H]2C(=O)N[C@@H](Cc2c[nH]c3ccccc23)C(=O)N[C@@H](CO)C(=O)N[C@@H](Cc2c[nH]c3ccccc23)C(=O)N1C [Example 7064] ({CH2CO}-[Phe(4-guanidino)][NMeA]NP[Dap]L[Hyp]WSW[NMeNle][NMeNle]RCG-NH2; thioether N-14)	> 30.5		> 74.3
CCCC[C@H]1C(=O)N(C)[C@@H](CCCC)C(=O)N[C@@H](CCCNC(=N)N)C(=O)N[C@H](C(=O)NCC(N)=O)CSCC(=O)N[C@@H](Cc2ccccc2OC)C(=O)N(C)[C@@H](C)C(=O)N[C@@H](CC(N)=O)C(=O)N2CCC[C@H]2C(=O)N[C@@H](Cc2cnc[nH]2)C(=O)N[C@@H](CC(C)C)C(=O)N2CCC[C@H]2C(=O)N[C@@H](Cc2c[nH]c3ccccc23)C(=O)N[C@@H](CO)C(=O)N[C@@H](Cc2c[nH]c3ccccc23)C(=O)N1C [Example 7017] ({CH2CO}-[Phe(2-OMe)][NMeA]NPHLPWSW[NMeNle][NMeNle]RCG-NH2; thioether N-14)	0.385 to 6.74		4.78 to 72.9
CCCC[C@H]1C(=O)N(C)[C@@H](CCCC)C(=O)N[C@@H](CCCNC(=N)N)C(=O)NC(C(=O)NCC(N)=O)CSCC(=O)N[C@@H](Cc2ccc(O)cc2)C(=O)N(C)[C@@H](C)C(=O)N[C@@H](CC(N)=O)C(=O)N2[C@@H](C)CC[C@H]2C(=O)N[C@@H](Cc2cnc[nH]2)C(=O)N[C@@H](CC(C)C)C(=O)N2CCC[C@H]2C(=O)N[C@@H](Cc2c[nH]c3ccccc23)C(=O)N[C@@H](CO)C(=O)N[C@@H](Cc2c[nH]c3ccccc23)C(=O)N1C (stereo partly drawn) [Example 9017] ({CH2CO}-Y[NMeA]N[Pro(5S-Me)]HLPWSW[NMeNle][NMeNle]R[ξC]G-NH2; thioether N-14)	6.76 to 30.3		4.78 to 72.9
CCCC[C@H]1C(=O)N(C)[C@@H](CCCC)C(=O)N[C@@H](CCCNC(=N)N)C(=O)N[C@H](C(=O)NCC(N)=O)CSCC(=O)N[C@@H](Cc2ccc(O)cc2)C(=O)N(C)[C@@H](C)C(=O)N[C@@H](CC(=O)O)C(=O)N2CCC[C@H]2C(=O)N[C@@H](Cc2cnc[nH]2)C(=O)N[C@@H](CC(C)C)C(=O)N2C[C@H](O)C[C@H]2C(=O)N[C@@H](Cc2c[nH]c3ccccc23)C(=O)N[C@@H](CO)C(=O)N[C@@H](Cc2c[nH]c3ccccc23)C(=O)N1C [Example 1166] ({CH2CO}-Y[NMeA]DPHL[Hyp]WSW[NMeNle][NMeNle]RCG-NH2; thioether N-14)	0.385 to 6.74	0.158 to 4.71	
